Key:
[1] = target: T1, Human PDGFRα, cytoplasmic domain (GST-PDGFRα) (Homo sapiens, UniProt P16234); assay: Human PDGFRα biochemical inhibition assay (off-chip Mobility Shift Assay)
T1 construct: made in house

[2] = target: T2, Human PDGFRβ, cytoplasmic domain (GST-PDGFRβ) (Homo sapiens, UniProt P09619); assay: Human PDGFRβ biochemical inhibition assay (off-chip Mobility Shift Assay)
T2 construct: made in house
Procedure, shortened: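 GST-tagged cytoplasmic domain (aa 557-1106) from baculovirus was incubated 1 h at room temperature with compound, CSKtide, ATP at Km and Mg²⁺ in HEPES buffer, pH 7.5. Phosphorylated and unphosphorylated peptide were separated by off-chip mobility shift, and the product ratio P/(P+S) gave percent inhibition.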

T1 sequence (P16234 550-1089 T674I): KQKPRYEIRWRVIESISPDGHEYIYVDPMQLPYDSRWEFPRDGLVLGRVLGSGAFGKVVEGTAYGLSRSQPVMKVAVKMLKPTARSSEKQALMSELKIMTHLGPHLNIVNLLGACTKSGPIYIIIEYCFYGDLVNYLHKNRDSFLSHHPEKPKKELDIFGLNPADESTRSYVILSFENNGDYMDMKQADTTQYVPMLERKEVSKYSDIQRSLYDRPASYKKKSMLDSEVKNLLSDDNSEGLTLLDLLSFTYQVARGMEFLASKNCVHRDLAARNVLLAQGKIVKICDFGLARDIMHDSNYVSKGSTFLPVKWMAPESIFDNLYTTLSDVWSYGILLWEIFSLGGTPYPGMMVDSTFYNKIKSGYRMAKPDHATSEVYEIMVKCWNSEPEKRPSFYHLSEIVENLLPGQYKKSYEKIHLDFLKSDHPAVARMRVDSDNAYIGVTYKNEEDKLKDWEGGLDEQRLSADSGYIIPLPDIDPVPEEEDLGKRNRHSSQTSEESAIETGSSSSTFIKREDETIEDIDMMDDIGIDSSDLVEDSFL
T2 sequence (P09619 with tags, fused parts or gaps): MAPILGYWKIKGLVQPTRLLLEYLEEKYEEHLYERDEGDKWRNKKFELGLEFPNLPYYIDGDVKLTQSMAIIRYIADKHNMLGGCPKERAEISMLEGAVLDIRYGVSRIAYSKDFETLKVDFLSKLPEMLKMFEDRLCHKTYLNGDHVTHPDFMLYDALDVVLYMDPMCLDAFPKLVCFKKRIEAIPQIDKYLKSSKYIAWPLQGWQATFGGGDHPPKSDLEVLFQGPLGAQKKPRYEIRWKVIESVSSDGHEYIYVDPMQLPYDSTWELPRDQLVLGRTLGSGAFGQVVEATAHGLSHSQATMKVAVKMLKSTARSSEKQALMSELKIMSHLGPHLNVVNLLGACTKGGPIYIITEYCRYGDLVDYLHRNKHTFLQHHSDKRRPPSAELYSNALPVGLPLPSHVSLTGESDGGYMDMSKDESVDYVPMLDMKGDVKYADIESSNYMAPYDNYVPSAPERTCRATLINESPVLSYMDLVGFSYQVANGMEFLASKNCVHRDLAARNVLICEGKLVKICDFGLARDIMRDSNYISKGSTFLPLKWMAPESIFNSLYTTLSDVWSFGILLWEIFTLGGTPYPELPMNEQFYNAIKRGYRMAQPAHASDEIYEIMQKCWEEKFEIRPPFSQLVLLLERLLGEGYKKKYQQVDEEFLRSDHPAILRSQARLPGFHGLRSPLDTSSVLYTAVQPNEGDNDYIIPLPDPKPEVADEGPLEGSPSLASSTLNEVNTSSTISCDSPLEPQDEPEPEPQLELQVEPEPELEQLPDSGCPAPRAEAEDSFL

IC50 [1] [µM]	IC50 [2] [µM]	SMILES
< 0.3	< 0.3	C[C@H](Nc1cnc2cnn(C)c2n1)c1cccc(NC(=O)c2cnn(CCF)c2)c1 [Compound 154, (S)-1-(2-fluoroethyl)-N-(3-(1-((1-methyl-1H-pyrazolo[3,4-b]pyrazin-6-yl)amino)ethyl)phenyl)-1H-pyrazole-4-carboxamide]
< 0.3	< 0.3	COc1cc(C(=O)Nc2cccc([C@H](C)Nc3cnc4cnn(C)c4n3)c2)cnc1C [Compound 252, (S)-5-methoxy-6-methyl-N-(3-(1-((1-methyl-1H-pyrazolo[3,4-b]pyrazin-6-yl)amino)ethyl)phenyl)nicotinamide]
< 0.3	< 0.3	CCn1cc2ncc(N[C@@H](C)c3cccc(NC(=O)c4ccc(CN5CC6(COC6)C5)c(C(F)F)c4)c3)nc2n1 [Compound 506, (S)-4-((2-oxa-6-azaspiro[3.3]heptan-6-yl)methyl)-3-(difluoromethyl)-N-(3-(1-((2-ethyl-2H-pyrazolo[3,4-b]pyrazin-6-yl)amino)ethyl)phenyl)benzamide]
< 0.3	≥ 1	CCn1cc2ncc(N[C@@H](C)c3cc(NC(=O)Cc4ccc(C5CCC5)cn4)ccc3F)nc2n1 [Compound 667, (S)-2-(5-cyclobutylpyridin-2-yl)-N-(3-(1-((2-ethyl-2H-pyrazolo[3,4-b]pyrazin-6-yl)amino)ethyl)-4-fluorophenyl) acetamide]
< 0.3	< 0.3	CCn1cc(C(=O)Nc2cccc([C@H](C)Nc3cnc4[nH]nc(C)c4n3)c2)cn1 [Compound 545, (S)-1-ethyl-N-(3-(1-((3-methyl-1H-pyrazolo[3,4-b]pyrazin-5-yl)amino)ethyl)phenyl)-1H-pyrazole-4-carboxamide]
< 0.3	≥ 1	CCn1cc2ncc(N[C@@H](C)c3cccc(NC(=O)Cc4ccc(C5CCC5)cn4)c3)nc2n1 [Compound 711, (S)-2-(5-cyclobutylpyridin-2-yl)-N-(3-(1-((2-ethyl-2H-pyrazolo[3,4-b]pyrazin-6-yl)amino)ethyl)phenyl)acetamide]
< 0.3	0.3 to 1	Cc1cncc(C(=O)Nc2cccc([C@H](C)Nc3cnc4ccoc4c3)c2)c1 [Compound 604, (S)-N-(3-(1-(furo[3,2-b]pyridin-6-ylamino)ethyl)phenyl)-5-methylnicotinamide]
< 0.3	< 0.3	COC(=O)c1ccc(C(=O)Nc2cccc([C@H](C)Nc3cnc4cnn(C)c4n3)c2)cc1 [Compound 211, methyl (S)-4-((3-(1-((1-methyl-1H-pyrazolo[3,4-b]pyrazin-6-yl)amino)ethyl)phenyl)carbamoyl) benzoate]
< 0.3	< 0.3	CCn1cc(C(=O)Nc2cccc([C@H](C)Nc3cnc4cnn(C)c4n3)c2)cn1 [Compound 153, (S)-1-ethyl-N-(3-(1-((1-methyl-1H-pyrazolo[3,4-b]pyrazin-6-yl)amino)ethyl)phenyl)-1H-pyrazole-4-carboxamide]
< 0.3	< 0.3	CCn1cc2ncc(N[C@@H](C)c3cccc(NC(=O)c4ccc5c(c4)OC(F)(F)O5)c3)nc2n1 [Compound 442, (S)-N-(3-(1-((2-ethyl-2H-pyrazolo[3,4-b]pyrazin-6-yl)amino)ethyl)phenyl)-2,2-difluorobenzo[d][1,3]dioxole-5-carboxamide]
< 0.3	≥ 1	CCn1cc2ncc(N[C@@H](C)c3cccc(NC(=O)Cc4ccc5c(n4)OCCC5)c3)nc2n1 [Compound 720, (S)-2-(3,4-dihydro-2H-pyrano[2,3-b]pyridin-7-yl)-N-(3-(1-((2-ethyl-2H-pyrazolo[3,4-b]pyrazin-6-yl)amino)ethyl)phenyl)acetamide]
< 0.3	< 0.3	C[C@H](Nc1cnc2cnn(C)c2n1)c1cccc(NC(=O)c2cncc(Br)c2)c1 [Compound 111, (S)-5-bromo-N-(3-(1-((1-methyl-1H-pyrazolo[3,4-b]pyrazin-6-yl)amino)ethyl)phenyl)nicotinamide]
< 0.3	< 0.3	CCn1cc2ncc(N[C@@H](C)c3cc(NC(=O)c4cnc(N5CCN(C)CC5)c(C)c4)ccc3C)nc2n1 [Compound 514, (S)-N-(3-(1-((2-ethyl-2H-pyrazolo[3,4-b]pyrazin-6-yl)amino)ethyl)-4-methylphenyl)-5-methyl-6-(4-methylpiperazin-1-yl)nicotinamide]
< 0.3	< 0.3	CCn1cc2ncc(N[C@@H](C)c3cccc(NC(=O)c4cnc(F)c(C)c4)c3)nc2n1 [Compound 329, (S)-N-(3-(1-((2-ethyl-2H-pyrazolo[3,4-b]pyrazin-6-yl)amino)ethyl)phenyl)-6-fluoro-5-methylnicotinamide]
< 0.3	0.3 to 1	CCn1cc2ncc(N[C@@H](C)c3cccc(NC(=O)c4ccc(OC(F)(F)F)nc4)c3)nc2n1 [Compound 282, (S)-N-(3-(1-((2-ethyl-2H-pyrazolo[3,4-b]pyrazin-6-yl)amino)ethyl)phenyl)-6-(trifluoromethoxy)nicotinamide]
0.3 to 1	≥ 1	Cc1cncc(C(=O)Nc2cccc([C@H](C)Nc3cnc4c(c3)OCCN4)c2)c1 [Compound 45]

IC50 [1] [µM]	IC50 [2] [µM]	SMILES
< 0.3	≥ 1	CCn1cc2ncc(N[C@@H](C)c3cccc(NC(=O)Nc4ccc(N(C)C)nc4)c3)nc2n1 [Compound 739, (S)-1-(6-(dimethylamino)pyridin-3-yl)-3-(3-(1-((2-ethyl-2H-pyrazolo[3,4-b]pyrazin-6-yl)amino)ethyl)phenyl)urea]
< 0.3	< 0.3	C[C@H](Nc1cnc2cnn(C)c2n1)c1cccc(NC(=O)c2ccc3c(c2)COC3=O)c1 [Compound 67, (S)-N-(3-(1-((1-methyl-1H-pyrazolo[3,4-b]pyrazin-6-yl)amino)ethyl)phenyl)-1-oxo-1,3-dihydroisobenzofuran-5-carboxamide]
< 0.3	< 0.3	Cc1cncc(C(=O)Nc2cccc([C@H](C)Nc3cnc4cnn(C5CC5)c4n3)c2)c1 [Compound 177, (S)-N-(3-(1-((1-cyclopropyl-1H-pyrazolo[3,4-b]pyrazin-6-yl)amino)ethyl)phenyl)-5-methylnicotinamide]
0.3 to 1	0.3 to 1	CCc1nc2cc(N[C@@H](C)c3cccc(NC(=O)c4cncc(C)c4)c3)cnc2[nH]1 [Compound 24]
< 0.3	< 0.3	C[C@H](Nc1cnc2cnn(C)c2n1)c1cccc(NC(=O)c2cncc(C(F)(F)F)c2)c1 [Compound 102, (S)-N-(3-(1-((1-methyl-1H-pyrazolo[3,4-b]pyrazin-6-yl)amino)ethyl)phenyl)-5-(trifluoromethyl)nicotinamide]
< 0.3	< 0.3	COc1ccc(C(=O)Nc2cccc([C@H](C)Nc3cnc4cnn(C)c4n3)c2)cc1C [Compound 210, (S)-4-methoxy-3-methyl-N-(3-(1-((1-methyl-1H-pyrazolo[3,4-b]pyrazin-6-yl)amino)ethyl)phenyl)benzamide]
< 0.3	< 0.3	CCn1cc2ncc(N[C@@H](C)c3cc(NC(=O)c4ccc(OC5CCN(C)CC5)c(C(F)(F)F)c4)ccc3F)nc2n1 [Compound 431, (S)-N-(3-(1-((2-ethyl-2H-pyrazolo[3,4-b]pyrazin-6-yl)amino)ethyl)-4-fluorophenyl)-4-((1-methylpiperidin-4-yl)oxy)-3-(trifluoromethyl)benzamide]
< 0.3	0.3 to 1	CCn1cc2ncc(N[C@@H](C)c3cc(NC(=O)c4ccc(C(F)(F)F)nc4)c(F)cc3F)nc2n1 [Compound 492, (S)-N-(5-(1-((2-ethyl-2H-pyrazolo[3,4-b]pyrazin-6-yl)amino)ethyl)-2,4-difluorophenyl)-6-(trifluoromethyl)nicotinamide]
< 0.3	< 0.3	CCn1cc2ncc(N[C@@H](C)c3cc(NC(=O)c4ccc(CN5CCOCC5)c(C(F)(F)F)c4)ccc3F)nc2n1 [Compound 428, (S)-N-(3-(1-((2-ethyl-2H-pyrazolo[3,4-b]pyrazin-6-yl)amino)ethyl)-4-fluorophenyl)-4-(morpholinomethyl)-3-(trifluoromethyl)benzamide]
0.3 to 1	≥ 1	CCn1cc2ncc(N[C@@H](C)c3cccc(NC(=O)c4cnc5cnn(C)c5c4)c3)nc2n1 [Compound 62, (S)-N-(3-(1-((2-ethyl-2H-pyrazolo[3,4-b]pyrazin-6-yl)amino)ethyl)phenyl)-1-methyl-1H-pyrazolo[4,3-b]pyridine-6-carboxamide]
< 0.3	< 0.3	COCc1cncc(C(=O)Nc2cccc([C@H](C)Nc3cnc4cnn(C)c4n3)c2)c1 [Compound 112, (S)-5-(methoxymethyl)-N-(3-(1-((1-methyl-1H-pyrazolo[3,4-b]pyrazin-6-yl)amino)ethyl)phenyl)nicotinamide]
< 0.3	0.3 to 1	CCn1cc2ncc(N[C@@H](C)c3cccc(NC(=O)Cc4cc(F)cc(CN5CCN(C)CC5)c4)c3)nc2n1 [Compound 646, (S)-N-(3-(1-((2-ethyl-2H-pyrazolo[3,4-b]pyrazin-6-yl)amino)ethyl)phenyl)-2-(3-fluoro-5-((4-methylpiperazin-1-yl)methyl)phenyl)acetamide]
< 0.3	0.3 to 1	CNc1ccc(C(=O)Nc2cccc([C@H](C)Nc3cnc4cnn(C)c4n3)c2)cn1 [Compound 120, (S)-N-(3-(1-((1-methyl-1H-pyrazolo[3,4-b]pyrazin-6-yl)amino)ethyl)phenyl)-6-(methylamino)nicotinamide]
< 0.3	< 0.3	Cc1cncc(C(=O)Nc2cccc([C@H](C)Nc3cnc4ccsc4c3)c2)c1 [Compound 606, (S)-5-methyl-N-(3-(1-(thieno[3,2-b]pyridin-6-ylamino)ethyl)phenyl) nicotinamide]
< 0.3	0.3 to 1	CCn1cc2ncc(N[C@@H](C)c3cccc(NC(=O)Cc4cc(C)c(F)cn4)c3)nc2n1 [Compound 686, (S)-N-(3-(1-((2-ethyl-2H-pyrazolo[3,4-b]pyrazin-6-yl)amino)ethyl)phenyl)-2-(5-fluoro-4-methylpyridin-2-yl) acetamide]
